Laboratory results taken from ChEMBL document CHEMBL3045684, “Compatibility of traditional and novel acaricides with bumblebees (Bombus terrestris): a first laboratory assessment of toxicity and sublethal effects” (Pest Manag Sci, 2010).
Activity calls are given as the source filed them. No cut-off for these calls is given here.

Experiments:
Bombus terrestris [1] = test: Toxicity against worker Bombus terrestris (bumblebee) assessed as reduction in reproduction at 400 mg a.i./l, po administered through pollen for 11 weeks measured once a week for 11 weeks; format: functional; parameters: scale not given: the % may be the effect or the level left
Bombus terrestris [2] = test: Contact toxicity against worker Bombus terrestris (bumblebee) assessed as reduction in reproduction at 400 mg a.i./l applied on the dorsal thorax for 11 weeks measured once a week for 11 weeks relative to control; format: functional, organism-based
Bombus terrestris [3] = test: Contact toxicity against worker Bombus terrestris (bumblebee) assessed as mortality at 400 mg a.i./l applied on the dorsal thorax for 11 weeks measured everyday for 3 days followed by once a week for 11 weeks; format: functional
Bombus terrestris [4] = test: Toxicity against worker Bombus terrestris (bumblebee) assessed as mortality at 400 mg a.i./l, po administered through sugar water for 11 weeks measured everyday for 3 days followed by once a week for 11 weeks; format: functional
Bombus terrestris [5] = test: Toxicity against worker Bombus terrestris (bumblebee) assessed as reduction in reproduction at 400 mg a.i./l, po administered through sugar water for 11 weeks measured once a week for 11 weeks relative to control; format: functional, organism-based
Bombus terrestris [6] = test: Toxicity against worker Bombus terrestris (bumblebee) assessed as mortality at 400 mg a.i./l, po administered through pollen for 11 weeks measured everyday for 3 days followed by once a week for 11 weeks; format: functional
Bombus terrestris [7] = test: Toxicity against worker Bombus terrestris (bumblebee) assessed as mortality at 400 mg a.i./l, po administered through sugar water measured up to 1 week; format: functional, organism-based
Bombus terrestris [8] = test: Toxicity against worker Bombus terrestris (bumblebee) assessed as mortality at 3 mg a.i./l, po administered through sugar water for 11 weeks measured everyday for 3 days followed by once a week for 11 weeks; format: functional
Bombus terrestris [9] = test: Toxicity against worker Bombus terrestris (bumblebee) assessed as reduction in reproduction at 3 mg a.i./l, po administered through sugar water for 11 weeks measured once a week for 11 weeks relative to control; format: functional, organism-based
Bombus terrestris [10] = test: Contact toxicity against worker Bombus terrestris (bumblebee) assessed as mortality at 3 mg a.i./l applied on the dorsal thorax for 11 weeks measured everyday for 3 days followed by once a week for 11 weeks; format: functional
Bombus terrestris [11] = test: Toxicity against worker Bombus terrestris (bumblebee) assessed as mortality at 3 mg a.i./l, po administered through pollen for 11 weeks measured everyday for 3 days followed by once a week for 11 weeks; format: functional
Bombus terrestris [12] = test: Contact toxicity against worker Bombus terrestris (bumblebee) assessed as reduction in reproduction at 3 mg a.i./l applied on the dorsal thorax for 11 weeks measured once a week for 11 weeks relative to control; format: functional, organism-based
Bombus terrestris [13] = test: Toxicity against worker Bombus terrestris (bumblebee) assessed as reduction in reproduction at 3 mg a.i./l, po administered through pollen for 11 weeks measured once a week for 11 weeks; format: functional; parameters: scale not given: the % may be the effect or the level left
Bombus terrestris [14] = test: Contact toxicity against worker Bombus terrestris (bumblebee) assessed as mortality at 50 mg a.i./l applied on the dorsal thorax for 11 weeks measured everyday for 3 days followed by once a week for 11 weeks; format: functional
[15] = n-octanol-water distribution coefficient, log KOW of the compound; format: physicochemical; conditions: read-out: log KOW
Bombus terrestris [16] = test: Contact toxicity against worker Bombus terrestris (bumblebee) assessed as reduction in reproduction at 50 mg a.i./l applied on the dorsal thorax for 11 weeks measured once a week for 11 weeks relative to control; format: functional, organism-based
Bombus terrestris [17] = test: Toxicity against worker Bombus terrestris (bumblebee) assessed as reduction in reproduction at 50 mg a.i./l, po administered through pollen for 11 weeks measured once a week for 11 weeks; format: functional; parameters: scale not given: the % may be the effect or the level left
Bombus terrestris [18] = test: Toxicity against worker Bombus terrestris (bumblebee) assessed as reduction in reproduction at 50 mg a.i./l, po administered through sugar water for 11 weeks measured once a week for 11 weeks relative to control; format: functional; parameters: scale not given: the % may be the effect or the level left
Apis mellifera = test: Toxicity against Apis mellifera (honey bee) assessed as adverse efffect at 250 mg/l; format: functional, organism-based
Bombus terrestris [19] = test: Toxicity against worker Bombus terrestris (bumblebee) assessed as mortality at 50 mg a.i./l, po administered through pollen for 11 weeks measured everyday for 3 days followed by once a week for 11 weeks; format: functional, organism-based
Bombus terrestris [20] = test: Toxicity against worker Bombus terrestris (bumblebee) assessed as mortality at 50 mg a.i./l, po administered through sugar water for 11 weeks measured everyday for 3 days followed by once a week for 11 weeks; format: functional
Bombus terrestris [21] = test: Toxicity against worker Bombus terrestris (bumblebee) assessed as mortality at 50 mg a.i./l, po administered through sugar water measured after 4 to 6 weeks; format: functional, organism-based

## Cc1ccc(/N=C/N(C)/C=N/c2ccc(C)cc2C)c(C)c1 [AMITRAZ]
Bombus terrestris [1]
  Activity: 50%
Bombus terrestris [2]
  Activity: inactive
Bombus terrestris [3]
  mortality at 400 µg/mL: < 25%
Bombus terrestris [4]
  mortality at 400 µg/mL: 95%
Bombus terrestris [5]
  Activity: Active
Bombus terrestris [6]
  mortality at 400 µg/mL: 90%
Bombus terrestris [7]
  Activity: Active

## C[C@@H]1[C@@H](c2ccc(Cl)cc2)SC(=O)N1C(=O)NC1CCCCC1 (relative stereo) [HEXYTHIAZOX]
Bombus terrestris [8]
  mortality at 3 µg/mL: < 25%
Bombus terrestris [9]
  Activity: Active
Bombus terrestris [10]
  mortality at 3 µg/mL: < 25%
Bombus terrestris [11]
  mortality at 3 µg/mL: 90%
Bombus terrestris [12]
  Activity: inactive
Bombus terrestris [13]
  Activity: 50%

## Cc1nn(C)c(Oc2ccccc2)c1/C=N/OCc1ccc(C(=O)OC(C)(C)C)cc1 [FENPYROXYMATE]
Bombus terrestris [14]
  mortality at 50 µg/mL: < 25%
[15]
  logP: 5.01
Bombus terrestris [16]
  Activity: inactive
Bombus terrestris [17]
  Activity: 50%
Bombus terrestris [18]
  Activity: 90%
Apis mellifera
  Activity: inactive
Bombus terrestris [19]
  Activity: inactive
Bombus terrestris [20]
  mortality at 50 µg/mL: 95%
Bombus terrestris [21]
  Activity: Active
